Assay results published in patent publication US6930314B2, “Light detection device” (Molecular Devices Corporation, priority 2000, dated 2005).

Tested on: CHO ml cells
Assay: Calcium flux assay
Assay type: cell-based
Details: CHO ml cells in 384-well microplate loaded with fluorescent calcium ion indicator; carbachol 10 nM, 100 nM, 10 μM; single selected well, frames about two seconds apart
Method: This example, illustrated in FIGS. 6 and 7, describes calcium flux assays conducted using an apparatus constructed in accordance with aspects of the invention.
Cultured CHO ml cells were grown overnight in a 384-well microplate, then loaded with a cell-permeant form of a fluorescent calcium ion indicator for 1 hour. […] The manual addition of carbachol (a calcium flux stimulant) in 10 nM, 100 nM, and 10 μM concentrations was used to mimic small, medium, and large sustained responses.
The figure records the average light intensity in a single selected well as a function of frame number (each frame taken approximately two seconds apart), where the selected well was one to which carbachol was added.
Here, no sustained increase in signal strength was observed, although there were small fluctuations due to shot-to-shot variations in illumination laser intensity.

C[N+](C)(C)CCOC(N)=O [carbachol]
fluorescence signal (calcium flux response) after addition of carbachol: rapid increase in the fluorescence signal over the first few frames, with a slow decay
